Source: US20260240941A1, “TREATMENT AND PREVENTION OF AGENT-INDUCED LIVER CONDITIONS OR DISEASES” (FARSIGHT MEDICAL TECHNOLOGY (SHANGHAI) CO., LTD., priority 2023, published 2026)
“Also recorded” adds a separate entry of the source.

What was measured:
C57BL/6J wild-type mice [1] = test: Acetaminophen-induced liver injury model in mice; type: in vivo; details: for Necrotic Area (%) of the liver (liver tissue protection): 5 mg/kg and 10 mg/kg i.v. 1 h after APAP 300 mg/kg i.p.; for Necrotic Area (%) of the liver (liver tissue protection) / ALT biomarker level / AST biomarker level: vs APAP alone
Description: C57BL/6J wild-type mice were purchased from Guangdong Medical Animal Centre (Guangzhou, China). Male mice (n=8, 8 weeks of age) were randomly assigned to the different treatment groups. Mice were acclimatized to their environment for 1 week before the experiments. Animals were fasted overnight, but allowed access to water, before acetaminophen (APAP) administration.
APAP (Sigma Aldrich) was dissolved in warm phosphate-buffered saline (PBS; 55° C.) that was cooled to 37° C. before injection and administered intraperitoneally with APAP at a dose of 300 mg/kg after 15 hours of starvation. Compound 1 was made fresh for each experiment in sterile 0.9% saline at 20 mg/ml. N-acetylcysteine (NAC, Sigma Aldrich) was made fresh for each experiment in 0.9% saline at 20 mg/ml.
After APAP administration (1 hours), either PBS (Control Group), Compound 1 (10 mg/kg, 5 mg/kg, 2.5 mg/kg, 1 mg/kg) or NAC (150 mg/kg) were injected intravenously in the tail vein of mice. In the Control Group, the mice were injected with phosphate-buffered saline vehicle (labelled “Ctrl” in the Figures), in the Vigilance Group the mice were injected with Compound 1 (labelled “v-Compound 1-10 mg” in the Figures). In both the Control and Vigilance Groups, no APAP was administered.
Mice were sacrificed at 6 and 24 hours after administration of APAP. Blood samples and livers were harvested for serum ALT (alanine aminotransferase) and AST (aspartate aminotransferase), and histology. ALT and AST in serum samples were detected using the alanine aminotransferase assay kit (S03030) and the aspartate aminotransferase assay kit (S03040) and automated clinical chemistry analyzer (Chemray 800) from Rayto.
All liver sections were stained with a hematoxylin and eosin (H&E) stain. Necrotic area was measured and expressed as a percentage of necrotic tissue in whole area of liver section. All animal procedures were approved by the Laboratory Animals Ethics Committee of Jinan University (Guangzhou, China).

C57BL/6J wild-type mice [2] = test: Alcohol-induced liver injury in mice (chronic 8 weeks ethanol diet plus multiple binges, E8w+nB); type: in vivo; details: 10 mg/kg i.p. daily for the last two weeks of 8 weeks alcohol plus binges
Description: C57BL/6J wild-type mice were purchased from Guangdong Medical Animal Centre (Guangzhou, China). Male mice (n=7, 8 weeks of age) were randomly assigned to the different treatment groups. The mice were initially fed a controlled Lieber-DeCarli diet ad libitum for 5 days (TP4030C, Trophic Animal Feed High-Tech Co., Ltd, China) to acclimatize them to a liquid diet. Subsequently, the ethanol-fed groups were allowed free access for 8 weeks to an ethanol diet (TP4030D, Trophic) containing 5% (vol/vol) ethanol.
Chronic (8 weeks)-plus-multiple binges (E8w+nB): mice were fed an ethanol Lieber-DeCarli diet for 8 weeks as described above and treated by gavage administration twice a week (5 g/kg ethanol) during the 8-week feeding. Mice were euthanized 9 h post gavage.
The control mice were pair-fed an isocaloric control liquid diet for 8 weeks (P8w), followed by gavage administration of isocaloric liquid dextrin-maltose (Ctrl), without exposure to alcohol.
Compound 1 was made fresh for each experiment in sterile 0.9% saline at 20 mg/ml and administered intraperitoneally (10 mg/kg) daily for the last two weeks.
Blood samples and livers were harvested for serum ALT and AST, and histology. All liver sections were stained with H&E and Oil Red O staining. The features of alcoholic liver disease (“ALD”) are scored according to the non-alcoholic fatty liver disease (“NAFLD”) activity score (“NAS”) originally developed to measure changes in NAFLD during therapeutic trials but is also applicable to ALD. The ALD score of each group was calculated according to standard procedures.
Oil Red O is a fat-soluble azo dye, used to stain fats, specifically neutral triglycerides, lipids and lipoproteins in tissues and cells. […] The Oil Red O quantification “a.v.” means a subjective quantity, i.e., “arbitrary value”. The image quantification software ImageJ was used to select the area of oil red staining in liver sections and the area of lipid droplets in quantitative sections.

[3] = 5 mg/kg and 10 mg/kg i.v., 6 hours after APAP
[4] = 5 mg/kg and 10 mg/kg i.v., 24 hours after APAP
[5] = all Compound 1 levels (1, 2.5, 5, 10 mg/kg i.v.), 6 hours after APAP
[6] = all Compound 1 levels (1, 2.5, 5, 10 mg/kg i.v.), 24 hours after APAP

## C/C=C/C[C@@H](C)[C@@H](O)[C@H]1C(=O)N[C@@H](CC)C(=O)N(C)[C@H](OCCN(C)C)C(=O)N(C)[C@@H](CC(C)C)C(=O)N[C@@H](C(C)C)C(=O)N(C)[C@@H](CC(C)C)C(=O)N[C@@H](C)C(=O)N[C@H](C)C(=O)N(C)[C@@H](CC(C)C)C(=O)N(C)[C@@H](CC(C)C)C(=O)N(C)[C@@H](C(C)C)C(=O)N1C [Compound 1, [(R)-2′(2-dimethylaminoethoxy)-Sar]^3 cyclosporin A]
C57BL/6J wild-type mice [1]; 2.5 mg/kg, 5 mg/kg and 10 mg/kg i.v., 6 hours after APAP
  TNF-α, IL-1β, and/or IL-6 inflammation biomarker levels of the liver: reduced
C57BL/6J wild-type mice [1]; 6 hours after APAP
  Necrotic Area (%) of the liver (liver tissue protection): showed liver tissue protection; also recorded: reduced necrotic area
C57BL/6J wild-type mice [1]; 24 hours after APAP
  Necrotic Area (%) of the liver (liver tissue protection): showed liver tissue protection; also recorded: reduced necrotic area
C57BL/6J wild-type mice [1]; [3]
  IL-1β inflammation biomarker (ELISA): reduced
  IL-6 inflammation biomarker (ELISA): reduced
  TNF-α inflammation biomarker (ELISA): reduced
  ALT biomarker level: reduced
  AST biomarker level: reduced
C57BL/6J wild-type mice [1]; [4]
  IL-1β inflammation biomarker (ELISA): reduced
  IL-6 inflammation biomarker (ELISA): reduced
  TNF-α inflammation biomarker (ELISA): reduced
  ALT biomarker level: reduced
  AST biomarker level: reduced
C57BL/6J wild-type mice [1]; [5]
  serum ALT (alanine aminotransferase) biomarker level: reduced
  serum AST (aspartate aminotransferase) biomarker level: reduced
C57BL/6J wild-type mice [1]; [6]
  TNF-α, IL-1β, and/or IL-6 inflammation biomarker levels of the liver: reduced
  serum ALT (alanine aminotransferase) biomarker level: reduced
  serum AST (aspartate aminotransferase) biomarker level: reduced
C57BL/6J wild-type mice [2]; vs untreated ALD
  serum ALT (alanine aminotransferase) level: reduces
  serum AST (aspartate aminotransferase) level: reduces
C57BL/6J wild-type mice [2]; vs untreated ALD Group
  hepatic lipid accumulation (Oil Red O liver staining, a.v.): reduces hepatic lipid accumulation
